36 molecules from patent US11548899B2, “Fused 1,4-oxazepines and related analogs as BET bromodomain inhibitors” (THE REGENTS OF THE UNIVERSITY OF MICHIGAN, priority 2016, dated 2023) can be followed below.

Structures are written as SMILES. Values joined by “and” are separate entries in the source; they are usually repeats but may differ in a detail not shown here. Equal values may be shown once.

The first test concerns the target T1, recombinant BRD4 BD1 (Homo sapiens, UniProt O60885).
T1 construct: recombinant BRD4 BD1 and BRD4 BD2 proteins
As to the kind of experiment: Competitive fluorescence-polarization (FP) binding assay, BRD4 BD1. Conditions: FP competitive binding; protein 10 nM, probe 1.5 nM; read-out: IC50 (nM) BRD4 BD1.
By IC50 is commonly meant the concentration at which inhibition is half-maximal. As to `Cc1cc2c(s1)-n1c(C)nnc1COC2` [Cpd. No. 1, 2,9-dimethyl-4H,6H-thieno[2,3-e][1,2,4]triazolo[3,4-c][1,4]oxazepine], the IC50 turned out to be 66900 nM.
Turning to `Cc1sc2c(c1Br)COCc1nnc(C)n1-2` [Cpd. No. 2, 3-bromo-2,9-dimethyl-4H,6H-thieno[2,3-e][1,2,4]triazolo[3,4-c][1,4]oxazepine], the IC50 was found to be 23200 nM.
Regarding `Cc1sc2c(c1-c1ccccc1)COCc1nnc(C)n1-2` [Cpd. No. 3, 2,9-dimethyl-3-phenyl-4H,6H-thieno[2,3-e][1,2,4]triazolo[3,4-c][1,4]oxazepine], the IC50 was 13300 nM.
Regarding `Cc1sc2c(c1Cc1ccccc1)CN[C@@H](C)c1nnc(C)n1-2` [Cpd. No. 13, (S)-3-benzyl-2,6,9-trimethyl-5,6-dihydro-4H-thieno[3,2-f][1,2,4]triazolo[4,3-a][1,4]diazepine], the half-inhibitory concentration (IC50) was 1070 nM and 1200 nM.
For `Cc1sc2c(c1Cc1ccccc1)CN[C@H](C)c1nnc(C)n1-2` [Cpd. No. 17, (R)-3-benzyl-2,6,9-trimethyl-5,6-dihydro-4H-thieno[3,2-f][1,2,4]triazolo[4,3-a][1,4]diazepine], the IC50 was 1080 nM.
Consider `CCC(=O)N1Cc2c(sc(C)c2Cc2ccccc2)-n2c(C)nnc2[C@@H]1C` [Cpd. No. 19, (S)-1-(3-benzyl-2,6,9-trimethyl-4H-thieno[3,2-f][1,2,4]triazolo[4,3-a][1,4]diazepin-5(6H)-yl)propan-1-one], for which the IC50 came to 2430 nM.
For the molecule `COC(=O)C[C@H]1c2nnc(C)n2-c2sc(C)c(Cc3ccccc3)c2CN1C(=O)OCc1ccccc1` [Cpd. No. 21, benzyl (S)-3-benzyl-6-(2-methoxy-2-oxoethyl)-2,9-dimethyl-4H-thieno[3,2-f][1,2,4]triazolo[4,3-a][1,4]diazepine-5(6H)-carboxylate], the IC50 is 23800 nM.
For `Cc1nnc2n1-c1scc(Cc3ccccc3)c1COC2` [Cpd. No. 30, 3-benzyl-9-methyl-4H,6H-thieno[2,3-e][1,2,4]triazolo[3,4-c][1,4]oxazepine], the IC50 was found to be 1390 nM.
With `Cc1sc2c(c1C1=CCc3ccccc31)COCc1nnc(C)n1-2` [Cpd. No. 53, 3-(1H-inden-3-yl)-2,9-dimethyl-4,6-dihydrothieno[2,3-e][1,2,4]triazolo[3,4-c][1,4]oxazepine], the IC50 was 244 nM.
Take `Cc1sc2c(c1C1CCc3ccccc31)COCc1nnc(C)n1-2` (stereo not shown) [Cpd. No. 55, 3-(2,3-dihydro-1H-inden-1-yl)-2,9-dimethyl-4,6-dihydrothieno[2,3-e][1,2,4]triazolo[3,4-c][1,4]oxazepine]: the IC50 came to 288 nM.
On to `Cc1sc2c(c1C1=CCCCc3ccccc31)COCc1nnc(C)n1-2` [Cpd. No. 56, 3-(6,7-dihydro-5H-benzo[7]annulen-9-yl)-2,9-dimethyl-4,6-dihydrothieno[2,3-e][1,2,4]triazolo[3,4-c][1,4]oxazepine], for which the IC50 amounted to 134 nM.
Consider `Cc1sc2c(c1C1=CCCc3cc(F)ccc31)COCc1nnc(C)n1-2` [Cpd. No. 57, 3-(6-fluoro-3,4-dihydronaphthalen-1-yl)-2,9-dimethyl-4,6-dihydrothieno[2,3-e][1,2,4]triazolo[3,4-c][1,4]oxazepine], for which the IC50 was 198 nM.
Regarding `Cc1sc2c(c1C1=CCCc3ccc(F)cc31)COCc1nnc(C)n1-2` [Cpd. No. 58, 3-(7-fluoro-3,4-dihydronaphthalen-1-yl)-2,9-dimethyl-4,6-dihydrothieno[2,3-e][1,2,4]triazolo[3,4-c][1,4]oxazepine], the IC50 came to 289 nM.
Regarding `Cc1nnc2n1-c1cccc(C3=CCCCc4ccccc43)c1COC2` [Cpd. No. 59, 7-(6,7-dihydro-5H-benzo[7]annulen-9-yl)-1-methyl-4,6-dihydrobenzo[e][1,2,4]triazolo[3,4-c][1,4]oxazepine], the IC50 came out at 966 nM.
Consider `Cc1nnc2n1-c1cccc(C3CCCCc4ccccc43)c1COC2` (stereo not shown) [Cpd. No. 60, 1-methyl-7-(6,7,8,9-tetrahydro-5H-benzo[7]annulen-5-yl)-4,6-dihydrobenzo[e][1,2,4]triazolo[3,4-c][1,4]oxazepine], for which the IC50 came to 1150 nM.
As for `Cc1nnc2n1-c1ccc(Cl)c(Br)c1COC2` [Cpd. No. 70, 7-bromo-8-chloro-1-methyl-4,6-dihydrobenzo[e][1,2,4]triazolo[3,4-c][1,4]oxazepine], the 50% inhibitory concentration (IC50) is over 10000 nM.
With `Cc1nnc2n1-c1ccc(-c3ccc(N)nc3)c(Cc3ccccc3)c1COC2` [Cpd. No. 72, 5-(7-benzyl-1-methyl-4,6-dihydrobenzo[e][1,2,4]triazolo[3,4-c][1,4]oxazepin-8-yl)pyridin-2-amine], the IC50 was 2070 nM and 1980 nM.
As to `Cc1nnc2n1-c1ccc(-c3cn[nH]c3)c(Cc3ccccc3)c1COC2` [Cpd. No. 75, 7-benzyl-1-methyl-8-(1H-pyrazol-4-yl)-4,6-dihydrobenzo[e][1,2,4]triazolo[3,4-c][1,4]oxazepine], the IC50 was determined as 923 nM.
As for `Cc1nnc2n1-c1ccc(-c3cnn(CC(N)=O)c3)c(Cc3ccccc3)c1COC2` [Cpd. No. 76, 2-(4-(7-benzyl-1-methyl-4,6-dihydrobenzo[e][1,2,4]triazolo[3,4-c][1,4]oxazepin-8-yl)-1H-pyrazol-1-yl)acetamide], the IC50 stood at 937 nM.
On the same count and under the same terms, in the case of `Cc1nnc2n1-c1ccc(C3=CCOCC3)c(Cc3ccccc3)c1COC2` [Cpd. No. 77, 7-benzyl-8-(3,6-dihydro-2H-pyran-4-yl)-1-methyl-4,6-dihydrobenzo[e][1,2,4]triazolo[3,4-c][1,4]oxazepine] it was 13200 nM; in that of `Cc1nnc2n1-c1ccc(C3=COCC3)c(Cc3ccccc3)c1COC2` [Cpd. No. 78, 7-benzyl-8-(4,5-dihydrofuran-3-yl)-1-methyl-4,6-dihydrobenzo[e][1,2,4]triazolo[3,4-c][1,4]oxazepine], 1320 nM.
On to `Cc1nnc2n1-c1ccc(C3CCOCC3)c(Cc3ccccc3)c1COC2` [Cpd. No. 79, 7-benzyl-1-methyl-8-(tetrahydro-2H-pyran-4-yl)-4,6-dihydrobenzo[e][1,2,4]triazolo[3,4-c][1,4]oxazepine], for which the half-maximal inhibitory concentration (IC50) was found to be 18100 nM.
In the case of `Cc1nnc2n1-c1ccc(-c3ccoc3)c(Cc3ccccc3)c1COC2` [Cpd. No. 80, 7-benzyl-8-(furan-3-yl)-1-methyl-4,6-dihydrobenzo[e][1,2,4]triazolo[3,4-c][1,4]oxazepine], the half-inhibitory concentration (IC50) is 532 nM.
On to `Cc1nnc2n1-c1ccc(C3CCOC3)c(Cc3ccccc3)c1COC2` (stereo not shown) [Cpd. No. 81, 7-benzyl-1-methyl-8-(tetrahydrofuran-3-yl)-4,6-dihydrobenzo[e][1,2,4]triazolo[3,4-c][1,4]oxazepine], for which the IC50 was found to be 5420 nM.
In the case of `Cc1nnc2n1-c1ccc(C#C[Si](C)(C)C)c(Cc3ccccc3)c1COC2` [Cpd. No. 82, 7-benzyl-1-methyl-8-((trimethylsilyl)ethynyl)-4,6-dihydrobenzo[e][1,2,4]triazolo[3,4-c][1,4]oxazepine], the IC50 turned out to be 500 nM.
On the same count and under the same terms, in the case of `C#Cc1ccc2c(c1Cc1ccccc1)COCc1nnc(C)n1-2` [Cpd. No. 83, 7-benzyl-8-ethynyl-1-methyl-4,6-dihydrobenzo[e][1,2,4]triazolo[3,4-c][1,4]oxazepine] it was 150 nM; in that of `Cc1nnc2n1-c1sc(CN3CCOCC3)c(Cc3ccccc3)c1COC2` [Cpd. No. 90, 3-benzyl-9-methyl-2-(morpholinomethyl)-4H,6H-thieno[2,3-][1,2,4]triazolo[3,4-c][1,4]oxazepine], 6510 nM; in that of `C=C(C)c1sc2c(c1Cc1ccccc1)COCc1nnc(C)n1-2` [Cpd. No. 94, 3-benzyl-9-methyl-2-(prop-1-en-2-yl)-4H,6H-thieno[2,3-e][1,2,4]triazolo[3,4-c][1,4]oxazepine], 1050 nM.
Same read-out and setting: the result for `Cc1nnc2n1-c1sc(C3=CCOCC3)c(Cc3ccccc3)c1COC2` [Cpd. No. 95, 3-benzyl-2-(3,6-dihydro-2H-pyran-4-yl)-9-methyl-4H,6H-thieno[2,3-e][1,2,4]triazolo[3,4-c][1,4]oxazepine] reads 1820 nM; that for `Cc1nnc2n1-c1sc(C3CCOCC3)c(Cc3ccccc3)c1COC2` [Cpd. No. 97, 3-benzyl-9-methyl-2-(tetrahydro-2H-pyran-4-yl)-4H,6H-thieno[2,3-e][1,2,4]triazolo[3,4-c][1,4]oxazepine], 6710 nM; that for `Cc1sc2c(c1Cc1cc(F)cc(F)c1)COCc1nnc(C)n1-2` [Cpd. No. 104, 3-(3,5-difluorobenzyl)-2,9-dimethyl-4H,6H-thieno[2,3-e][1,2,4]triazolo[3,4-c][1,4]oxazepine], 313 nM.
Take `Cc1sc2c(c1Cc1ccc(F)c(F)c1)COCc1nnc(C)n1-2` [Cpd. No. 105, 3-(3,4-difluorobenzyl)-2,9-dimethyl-4H,6H-thieno[2,3-e][1,2,4]triazolo[3,4-c][1,4]oxazepine]: the IC50 worked out at 279 nM.
In the case of `Cc1sc2c(c1Cn1cccc1)COCc1nnc(C)n1-2` [Cpd. No. 107, 3-((1H-pyrrol-1-yl)methyl)-2,9-dimethyl-4H,6H-thieno[2,3-e][1,2,4]triazolo[3,4-c][1,4]oxazepine], the IC50 amounted to 494 nM.
Regarding `Cc1sc2c(c1COC(C)(C)C)COCc1nnc(C)n1-2` [Cpd. No. 108, 3-(tert-butoxymethyl)-2,9-dimethyl-4H,6H-thieno[2,3-e][1,2,4]triazolo[3,4-c][1,4]oxazepine], the IC50 was found to be 5000 nM.
The same measure, in the same setting: in the case of `Cc1nnc2n1-c1scc(Br)c1CO[C@H]2C` [Cpd. No. 117, (S)-3-bromo-6,9-dimethyl-4,6-dihydrothieno[2,3-e][1,2,4]triazolo[3,4-c][1,4]oxazepine] it was 118 nM.

Staying with this test, now noted: IC50 (nM) BRD4 BD1, FP competitive binding; protein 10 nM, probe 1.5 nM.
As for `Cc1nnc2n1-c1ccc(Cl)c(C3=CCCc4ccccc43)c1COC2` [Cpd. No. 74, 8-chloro-7-(3,4-dihydronaphthalen-1-yl)-1-methyl-4,6-dihydrobenzo[e][1,2,4]triazolo[3,4-c][1,4]oxazepine], the IC50 amounted to 1780 nM.

The next test deals with T2, recombinant BRD4 BD2 (Homo sapiens, UniProt O60885).
T2 construct: recombinant BRD4 BD1 and BRD4 BD2 proteins
As to the kind of experiment: Competitive fluorescence-polarization (FP) binding assay, BRD4 BD2. Conditions: protein 6 nM, probe 1.5 nM.
On to `Cc1sc2c(c1Cc1ccccc1)CN[C@@H](C)c1nnc(C)n1-2` [Cpd. No. 13, (S)-3-benzyl-2,6,9-trimethyl-5,6-dihydro-4H-thieno[3,2-f][1,2,4]triazolo[4,3-a][1,4]diazepine], for which the half-inhibitory concentration (IC50) is 1210 nM and 1350 nM.
On to `Cc1sc2c(c1Cc1ccccc1)CN[C@H](C)c1nnc(C)n1-2` [Cpd. No. 17, (R)-3-benzyl-2,6,9-trimethyl-5,6-dihydro-4H-thieno[3,2-f][1,2,4]triazolo[4,3-a][1,4]diazepine], for which the IC50 worked out at 622 nM.
Turning to `CCC(=O)N1Cc2c(sc(C)c2Cc2ccccc2)-n2c(C)nnc2[C@@H]1C` [Cpd. No. 19, (S)-1-(3-benzyl-2,6,9-trimethyl-4H-thieno[3,2-f][1,2,4]triazolo[4,3-a][1,4]diazepin-5(6H)-yl)propan-1-one], the IC50 was found to be 3210 nM.
Take `COC(=O)C[C@H]1c2nnc(C)n2-c2sc(C)c(Cc3ccccc3)c2CN1C(=O)OCc1ccccc1` [Cpd. No. 21, benzyl (S)-3-benzyl-6-(2-methoxy-2-oxoethyl)-2,9-dimethyl-4H-thieno[3,2-f][1,2,4]triazolo[4,3-a][1,4]diazepine-5(6H)-carboxylate]: the IC50 was found to be 17700 nM.
